Measured values taken from US8440638B2, “Compositions and methods for modulating calcium flux, glucose homeostasis and apoptosis” (Wisconsin Alumni Research Foundation, priority 2004, dated 2013).

Experiments:
[1] = tested on: nuclear acetyltransferase; assay: Nuclear OAADPr acetyltransferase (OAADPr-metabolizing) activity in HEK-293 nuclear extract; format: biochemical; settings: 100 μM puromycin, 60 min
Procedure: Shown is the development of whole cell currents over time in TRPM2-expressing HEK-293 cells. Bath solution was standard ringer's, and pipette solution was Cs-based and included 10 mM EGTA to buffer intracellular Ca^2+ to 10 nM. The patch pipette contained various concentrations of (FIG. 1a) ADPr, (FIG. 1b) OAADPr (FIG. 1c) OAADPr and puromycin as indicated in the figure. FIG. 1d.) Cytoplasmic OAADPr esterase activity is inhibited by puromycin. 200 μM O-[^3H]AADPr and 0-100 μM puromycin were added to cytoplasmic HEK-293 extract for 30 min. Percent hydrolysis of O-[^3H]AADPr to [^3H]acetate was measured as described hereinbelow. FIG. 1e.) Nuclear OAADPr acetyltransferase activity is not inhibited by puromycin. HEK-293 nuclear extract was incubated with 200 μM O-[^3H]AADPr in the presence or absence of 100 μM puromycin for 60 min. The reactions were quenched and resolved by HPLC. The radioactivity in collected fractions was determined by liquid scintillation counting. FIGS. 1f-g.) In vivo detection of OAADPr. […]
Cytoplasmic and nuclear extracts were prepared from HEK-293 cells as previously described (22). […] Aliquots of the supernatant containing [^3H]acetate were removed and analyzed by liquid scintillation counting. […] Radioactivity in each elution fraction was measured by liquid scintillation counting.

TRPM2 channel = biological target: T1, TRPM2 channel (Homo sapiens, UniProt O94759); assay: Whole cell patch clamp, TRPM2 channel gating in tet-induced TRPM2-expressing HEK-293 cells; format: cell-based
T1 construct: expressed in transfected cells; host or cells: tetracycline-inducible HEK-293
T1 sequence (O94759 whole entry): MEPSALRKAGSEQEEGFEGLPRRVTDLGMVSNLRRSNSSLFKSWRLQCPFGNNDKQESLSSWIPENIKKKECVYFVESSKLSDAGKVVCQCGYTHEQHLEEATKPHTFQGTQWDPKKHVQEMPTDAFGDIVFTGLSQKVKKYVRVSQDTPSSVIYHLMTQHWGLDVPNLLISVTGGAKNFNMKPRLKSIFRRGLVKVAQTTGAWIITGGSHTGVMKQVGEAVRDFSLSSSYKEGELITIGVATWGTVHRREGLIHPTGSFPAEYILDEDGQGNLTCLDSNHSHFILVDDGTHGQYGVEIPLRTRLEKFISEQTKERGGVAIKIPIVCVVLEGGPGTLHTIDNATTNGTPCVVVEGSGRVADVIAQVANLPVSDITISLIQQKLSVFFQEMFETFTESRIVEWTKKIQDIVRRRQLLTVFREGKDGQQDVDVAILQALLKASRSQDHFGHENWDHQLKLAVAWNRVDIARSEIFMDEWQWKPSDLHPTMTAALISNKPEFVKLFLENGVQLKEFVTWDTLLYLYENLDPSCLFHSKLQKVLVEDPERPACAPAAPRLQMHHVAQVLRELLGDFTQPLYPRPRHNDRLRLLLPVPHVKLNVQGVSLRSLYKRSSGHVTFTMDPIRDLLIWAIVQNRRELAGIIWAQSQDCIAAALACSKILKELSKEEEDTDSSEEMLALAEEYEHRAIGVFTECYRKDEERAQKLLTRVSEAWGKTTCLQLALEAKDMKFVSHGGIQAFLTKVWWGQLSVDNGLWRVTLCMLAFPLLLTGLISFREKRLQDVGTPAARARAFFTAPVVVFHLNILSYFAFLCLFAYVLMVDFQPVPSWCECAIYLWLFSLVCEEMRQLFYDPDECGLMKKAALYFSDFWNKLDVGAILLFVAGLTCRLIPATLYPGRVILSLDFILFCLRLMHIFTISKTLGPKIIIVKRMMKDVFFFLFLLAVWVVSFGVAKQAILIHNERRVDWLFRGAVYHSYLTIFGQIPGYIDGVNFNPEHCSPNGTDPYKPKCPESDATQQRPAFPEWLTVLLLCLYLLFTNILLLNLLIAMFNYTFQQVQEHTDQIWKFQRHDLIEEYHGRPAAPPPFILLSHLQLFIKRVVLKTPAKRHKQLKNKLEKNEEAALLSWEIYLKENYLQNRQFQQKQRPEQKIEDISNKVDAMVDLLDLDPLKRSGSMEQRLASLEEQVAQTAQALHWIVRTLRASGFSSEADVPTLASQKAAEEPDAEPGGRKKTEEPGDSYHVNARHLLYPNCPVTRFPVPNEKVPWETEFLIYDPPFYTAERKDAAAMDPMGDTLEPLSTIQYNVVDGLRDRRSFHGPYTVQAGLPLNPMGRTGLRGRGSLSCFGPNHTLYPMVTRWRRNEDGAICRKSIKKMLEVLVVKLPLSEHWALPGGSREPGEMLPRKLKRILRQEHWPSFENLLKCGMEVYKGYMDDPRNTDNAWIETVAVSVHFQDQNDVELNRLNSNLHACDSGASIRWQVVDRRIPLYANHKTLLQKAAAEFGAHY
Procedure: (§1) Shown is the development of whole cell currents over time in TRPM2-expressing HEK-293 cells. Bath solution was standard ringer's, and pipette solution was Cs-based and included 10 mM EGTA to buffer intracellular Ca^2+ to 10 nM. The patch pipette contained various concentrations of (FIG. 1a) ADPr, (FIG. 1b) OAADPr (FIG. 1c) OAADPr and puromycin as indicated in the figure. FIG. 1d.) Cytoplasmic OAADPr esterase activity is inhibited by puromycin. 200 μM O-[^3H]AADPr and 0-100 μM puromycin were added to cytoplasmic HEK-293 extract for 30 min. Percent hydrolysis of O-[^3H]AADPr to [^3H]acetate was measured as described hereinbelow. FIG. 1e.) Nuclear OAADPr acetyltransferase activity is not inhibited by puromycin. HEK-293 nuclear extract was incubated with 200 μM O-[^3H]AADPr in the presence or absence of 100 μM puromycin for 60 min. The reactions were quenched and resolved by HPLC. The radioactivity in collected fractions was determined by liquid scintillation counting. FIGS. 1f-g.) In vivo detection of OAADPr. Mass spectrum of HEK-293 generated OAADPr (peak m/z of 602.0894; the theoretical m/z for OAADPr is 602.0895) after puromycin treatment, with authentic [^13C]-OAADPr (peak m/z of 603.0851 and isotopic distribution of 604.0878 and 605.0928) as a standard. Peak 599.3691 is from the matrix.
Patch clamp electrophysiology was performed as previously described (23). Briefly, cells were patch clamped in the whole cell configuration at 25° C. using pipettes with resistances ranging from 2-3 MOhms. Currents were recorded on an EPC9 patch clamp amplifier with automatic capacitance compensation using a protocol generating a 50 msec voltage ramp from −100 to +100 mv every two seconds at a holding potential of 0 mv (appropriately corrected for liquid junction potential). Bath solution included 150 mM NaCl, 2.8 mM KCl, 5 mM CsCl, 1 mM CaCl2, 2 mM MgCl2, and 10 mM Hepes (pH 7.2). Pipette solution included 135 mM CsGlutamate, 1 mM MgCl2, 8 mM NaCl, 10 mM Hepes (pH 7.2), and 10 mM EGTA. […]

[2] = tested on: cellular levels of OAADPr in HEK-293 cells; assay: Detection of cellular OAADPr by HPLC fractionation and MALDI mass spectrometry; format: cell-based; settings: puromycin-treated vs mock-treated HEK-293 cells
Procedure: as §1, with “matrix. […]” for “matrix.”

HEK-293 cells = assay: Cell viability assay (calcein fluorescence), parental HEK-293 cells; format: cell-based; settings: parental HEK-293, 5-50 μM, 16 h
Procedure: Shown are HEK-293 cells (closed diamond) and HEK-293 cells stably transfected with a tet-controlled TRPM2 construct in the presence (open squares) or absence of (open diamonds) tetracycline. Cells incubated in the presence of 0-50 μM puromycin for 16 h were assayed for viability by measuring fluorescence of calcein in live cells. b.) Removal of calcium rescues cells from puromycin induced cell death. TRPM2-expressing HEK-293 cells were grown in complete DMEM media and 1 μg/ml tetracycline until 80-90% confluent. One set of cells were re-fed with the same complete media (closed diamonds) and the other set of cells were rinsed with PBS and fed with modified media containing 1 μg/ml tetracycline, 5 mM EGTA and without calcium chloride (open squares). […] HEK-293 (close diamond) and TRPM2 expressing HEK-293 cells in the absence (open diamond) or presence of (closed square) tetracycline were exposed to 0-10 μg/ml cycloheximide for 16 h. Cell viability was determined as described in (a).
HEK-293, tet-inducible HEK-293, and CRI-G1 cells were seeded into 6 well plates at a density of 500,000 cells per well. […] Calcein is retained in living, but not dead cells, where it undergoes catalytic conversion into a fluorescent compound Fluorescence in each well was measured in a microplate reader using excitation and emission filters at 485/530 nm, respectively.

COc1ccc(C[C@H](N)C(=O)N[C@H]2[C@@H](O)[C@H](n3cnc4c(N(C)C)ncnc43)O[C@@H]2CO)cc1 [puromycin]
effect on nuclear OAADPr-metabolizing activity [1]: no effect | effect on TRPM2 channel activity, compound alone (TRPM2 channel; 100 μM puromycin alone, data not shown): no affect | enhancement of OAADPr gated TRPM2 channel activity (TRPM2 channel; 125-250 μM puromycin in the patch pipette with OAADPr): no significant enhancement | cellular levels of OAADPr after treatment [2]: significantly detectable levels | cell death following puromycin treatment (HEK-293 cells): no significant cell death
